Data: paper PMC8370201, “Amaryllidaceae Alkaloid Cherylline Inhibits the Replication of Dengue and Zika Viruses” (Antimicrobial Agents and Chemotherapy, 2021)
Read-outs that look alike come from different tables or passages of the source.

Assays:
[1] = tested on: ZIKVR2A; experiment: microbe, parasite or virus in culture; settings: Zika virus, Huh7.5, read-out: EC50 (μM) for ZIKVR2A, Huh7.5 cells, luciferase at 48 hpi
[2] = tested on: ZIKV MR766; experiment: Plaque assay, infectious titers of WT ZIKV MR766 from Huh7.5 cells; assay type: cell-based, Zika virus (ZIKV); settings: treated 2 hpi, supernatant 48 h later
[3] = tested on: DENVGFP; experiment: DENVGFP reporter virus infection of Huh7 cells (flow cytometry / microscopy); settings: for anti-DENV activity in screening (GFP microscopy, words): Huh7, treated 2 h before DENVGFP MOI 0.15, 72 hpi, at the chosen concentration
[4] = tested on: ZIKVR2A; settings: for ZIKVR2A replication: Huh7.5 cells
[5] = tested on: DENVR2A; settings: CC50/EC50, Huh7.5
[6] = tested on: DENV2 16881s; experiment: Plaque assay, infectious titers of WT DENV2 16881s from Huh7.5 cells; assay type: cell-based, dengue virus (DENV); settings: AAs 50 μM, treated 2 hpi, supernatant 48 h later
Description: Huh7.5 cells were infected with DENV 16881s, ZIKV H/PF/2013, or ZIKV MR766 (MOI, 0.1) or left uninfected. […] Supernatants were harvested 2 days pi, and PFU were determined by plaque assay on VeroE6 cells. Cells incubated overnight (2 × 10^5 cells/well in 24-well plates) were infected with 10-fold serially diluted virus-containing supernatants for 2 h at 37°C. Inoculum was then replaced with MEM (Life Technologies) containing 1.5% carboxymethylcellulose (Millipore-Sigma). ZIKV- and DENV-infected cells were incubated for 5 and 7 days, respectively. One volume of 10% formaldehyde was added to the cells for fixation. Two hours later, cells were washed with tap water and stained with a 1% crystal violet/10% ethanol solution for 30 min. Wells were rinsed with tap water, and the number of plaques were counted to calculate virus titers.

[7] = tested on: DENVGFP; experiment: Time-of-drug-addition and -removal assays, DENVGFP in Huh7 cells; assay type: cell-based, dengue virus (DENV); settings: Huh7, treated 2 h prior to infection, removed 2 hpi, microscopy
Description: For the time-of-drug-addition assay, at the time of infection, AAs were added in wells corresponding to 0 h. At 2 hpi, viral inoculum was removed from every well, and AAs were added back to wells corresponding to 0 h and 2 h. At 4, 7, 12, and 24 hpi, AAs or DMSO diluted in DMEM was added to the appropriate wells. After 72 h, cells were trypsinized and fixed in 4% formaldehyde to measure the percentage of infected cells on an FC500 MPL cytometer. Alternatively, pictures of Hoechst 33342-stained cells were acquired on an Axio Observer microscope. All assays were performed in triplicate.
At 2 hpi, plates were washed, and medium was replaced to remove remaining viruses in the supernatant. AAs were added back to all wells, except the ones corresponding to 2 h of treatment, in which fresh medium exclusive of any AA was added. Accordingly, after 4, 7, and 12 h of infection, the supernatant was replaced by fresh medium in corresponding wells. After 72 h of incubation, results were acquired as for the time-of-drug-addition assay. All assays were performed in triplicate.

[8] = Cell viability (ATP, Cell-Titer GLO) in Huh7.5 cells; assay type: cell-based; settings: human
Description: Where indicated for Huh7.5 and Vero E6 cells and PBMCs, cell viability was measured by monitoring of cellular ATP levels using the Cell-Titer GLO assay kit (Promega). Briefly, 10× 10^3 to 20 × 10^3 cells in 50 to 100 μl were seeded in 48-well or 96-well plates and cultured overnight. AAs were added at the designated concentrations for 24 or 48 h, as specified in the text. Then, 50 to 100 μl of room temperature Cell-Titer GLO reagent was added in each well to room temperature-equilibrated cell plates. Plates were rocked for 2 min and rested for 10 min, and the luminescence signal was measured using a microplate spectrophotometer (Biotek Synergy H1 or Tecan Spark multimode microplate reader). Viability was expressed as a fold change calculated using the value of DMSO-treated cells at each concentration; for each AA and CC50, values were determined.

[9] = tested on: DENVR2A; experiment: microbe, parasite or virus in culture; settings: Dengue virus, Huh7.5, read-out: EC50 (μM) for DENVR2A
[10] = tested on: ZIKV H/PF/2013; experiment: Plaque assay, infectious titers of WT ZIKV H/PF/2013 from Huh7.5 cells; assay type: cell-based, Zika virus (ZIKV); settings: treated 2 hpi, supernatant 48 h later
[11] = tested on: Huh7 cells; experiment: XTT cytotoxicity assay in Huh7 cells; assay type: cell-based, human; settings: 0.4 to 400 μM, 72 hours
Description: Cytotoxicity properties were titrated by metabolism monitoring using the XTT [2,3-bis-(2-methoxy-4-nitro-5-sulfophenyl)-2H-tetrazolium-5-carboxanilide] assay kit (Roche, Millipore Sigma), as described before ([24]). Briefly, Huh7 cells were seeded at 10 × 10^3 cells per well in 96-well plates. […] After 72 h of incubation, medium was replaced by phenol-free DMEM (Wisent) containing 0.3 mg/ml XTT, and cells were incubated for 4 h. Absorbance was measured at 450nm using a microplate spectrophotometer (Synergy H1, Biotek). Treatment conditions with 0.5% DMSO were used as the reference control. The percentage of cell viability was calculated at each concentration.

| Structure (SMILES) | EC50 [1] | production of ZIKV MR766 infectious particles (words) [2] | production of ZIKV MR766 infectious particles (words) ([2]; listed as gigantellinine) | anti-DENV activity in screening (GFP microscopy, words) [3] | ZIKVR2A replication [4] | SI DENVR2A (therapeutic selectivity index) [5] | production of DENV infectious particles (words) [6] | production of DENV infectious particles (words) ([6]; listed as gigantellinine) | infection after removal of compound 2 hpi vs continuous treatment [7] | CC50 at 48 h [8] | EC50 [9] | production of ZIKV H/PF/2013 infectious particles (words) [10] | production of ZIKV H/PF/2013 infectious particles (words) ([10]; listed as gigantellinine) | cytotoxic activity of AAs [11] | SI ZIKVR2A (therapeutic selectivity index) ([4]; CC50/EC50, Huh7.5) | production of DENV infectious particles (words) ([6]; listed as hippadine) | CC50 at 48 h ([8]; Huh7.5 cells, Huh7.5, ATP, 48 h posttreatment, read-out: CC50) | decrease in ZIKV H/PF/2013 viral titer ([10]; AAs 50 μM) | decrease in ZIKV H/PF/2013 viral titers ([10]; AAs 50 μM) | EC50 ([3]; Dengue virus, Huh-7, read-out: EC50, DENVGFP infection) |
| --- | --- | --- | --- | --- | --- | --- | --- | --- | --- | --- | --- | --- | --- | --- | --- | --- | --- | --- | --- | --- |
| COc1ccc([C@@H]2CN(C)Cc3cc(O)c(OC)cc32)cc1O [Gigantellinine, gigantellinine] | > 250 µM | little effect | marginal effects on ZIKV production | moderate | did not significantly impact ZIKVR2A replication | >2.3 | little effect | no effects on DENV production | restored virus replication completely | > 250 µM | 105 µM | little effect | marginal effects on ZIKV production |  |  |  |  |  |  |  |
| O=c1c2cc3c(cc2c2cccc4ccn1c42)OCO3 [Hippadine, hippadine] | 114 µM | little effect |  | moderate | did not significantly impact ZIKVR2A replication | 2.38 | little effect |  | restored virus replication completely |  | 73.8 µM |  |  | cytotoxic | 1.54 | no effects on DENV production | 176 µM | 3 fold | 70% |  |
| CN1CC[C@@]23C=C[C@H](O)C[C@@H]2Oc2c(O)ccc(c23)C1 [Sanguinine, sanguinine] |  |  |  | very weak |  |  |  |  | restored virus replication completely |  |  |  |  |  |  |  |  |  |  |  |
| NC(=O)c1ncn([C@@H]2O[C@H](CO)[C@@H](O)[C@H]2O)n1 [ribavirin, reference compound] |  |  |  |  |  |  |  |  |  |  |  |  |  |  |  |  |  |  |  | 100 µM |
